# Assay results: patent publication US7012098B2, “Inhibitors of inducible nitric oxide synthase for chemoprevention and treatment of cancers” (Pharmacia Corporation, priority 2001, dated 2006)
# Structures can show the parent of a compound that is named as a salt. Where two headings read alike, the source gives them in different places.
# How the values were obtained:
# AOM-induced colonic ACF = experiment: Chemopreventive effects in rats with azoxymethane-induced aberrant crypt foci; assay type: in vivo, male F344 rats; conditions: for Foci containing 1 Crypt / Foci containing 2 Crypt / Foci containing 3 Crypt / Foci containing ≧4 Crypts / Total ACF incidence: AOM-treated male F344 rats, Mean ± SEM; for inhibition at 320 ppm: feed or water, positive control
# Source text: In Vivo Assay of Chemopreventive Effects of Therapeutic Compounds in Rats with Azoxymethane-induced Aberrant Crypt Foci
# (§1) Azoxymethane (AOM) (CAS:25843-45-2) was purchased from Ash Stevens (Detroit, Mich.). iNOS and COX-2 selective inhibitors were provided by Pharmacia, (St. Louis, […].). Sulindac, a non-selective inhibitor of COX-isoforms and a known inhibitor of colon carcinogenesis, was supplied by the Chemoprevention Branch of the National Cancer Institute (Bethesda, Md.). Weanling male F344 rats were purchased from Charles River Breeding Laboratories (Kingston, N.Y.). All ingredients of the semipurified diet were obtained from Dyets Inc., (Bethlehem, Pa.) and were stored at 4° C. until the experimental diets were prepared. The rats were held in quarantine for 1 week and had access to modified AIN-76A semipurified control diet (Reddy et al., Cancer Res. 50: 2562-2568, 1990, which is herein incorporated by reference.). They were randomly distributed into various dietary groups and were transferred to an animal holding room where they were housed, three rats to a plastic cage, under controlled conditions of a 12-h light/12-h dark cycle, 50% relative humidity and 21° C. room temperature. Experimental diets were prepared by mixing chemopreventive agents with modified AIN-76A control diet.
# To quantify aberrant crypt foci, after a minimum of 24 h in buffered formalin, the colons were cut into 2-cm segments starting at the anus; for the next 5-10 min they were placed in a Petri dish containing 0.2% methylene blue in Krebs Ringer solution. They were then placed, mucosal side up, on a microscope slide and observed through a light microscope. Aberrant crypt foci were recorded according to standard procedures that are being used routinely in our laboratory (Rao et al., Carcinogenesis 21: 617-21, 2000; Rao et al., Cancer Res. 53:4182-88, 1993, which are herein incorporated by reference.). […] The parameters used to assess the aberrant crypts were their occurrence and multiplicity. Crypt multiplicity was determined as the number of crypts in each focus and categorized as containing up to 3, or 4 or more aberrant crypts/focus.
# NOS = experiment: Colonic mucosal NOS activity after dietary treatment; assay type: in vivo, male F344 rats; conditions: 500 ppm in diet; AOM-treated rats, colonic mucosa; Mean ± SEM
# Description: In Vivo Assay of Modulation of Colonic Mucosal Activities of NOS and COX isoforms by iNOS and COX-2 Inhibitors
# NOS and iNOS activities were determined in colonic samples as prepared and described above. Conversion of L-arginine to L-citrulline was measured by a modification of an earlier described method (Rao et al, Carcinogenesis 21, supra; Ambs et al., Cancer Res. 58:334-41, 1998, which is herein incorporated by reference). The assay was carried out by adding 100 μg sample protein to 150 μl of assay buffer [50 mM HEPES, 1 mM DTT, 1 mM MgCl2, 5 mg/L pepstatin A, 0.1 mM PMSF, and 3 mg/L aprotinin, pH 7.4] containing 70 μM arginine, 250,000 dpm L-[^3H]-arginine, 2 mM NADPH, 5μM tetrahydro biopterin, 5 μM flavin adenine dinucleotide, and 0.5 mM CaCi2 to measure total NOS activity, or 1 mM EGTA (without calcium) to determine Ca+^2-independent iNOS activity. After 30 min at 37° C., the reaction was stopped with 100 μl of 1M trichloroacetic acid. Then the samples were adjusted to pH 4.6 by adding 500 μl of 20 mM HEPES and loaded on to Dowex AG 50W-X8 resin columns. L-[^3H]-citrulline was eluted and separated on TLC. Radioactivity was counted by a BioScan Radiomatic detector. Results are expressed as pmol L-[^3H]-citrulline released/mg protein/min.
# [1] = tested on: LPS-induced increase in plasma nitrite/nitrate levels; experiment: In Vivo Assay, endotoxin-treated rats, plasma nitrite/nitrate; conditions: administered orally
# Description: Plasma nitrite/nitrate levels can be determined 5 hours post-treatment.
# Human Cartilage = Human Cartilage Explant Assay (nitrite production); assay type: cell-based; conditions: inhibition of nitrite production, IL-1β-induced explants
# Description: Human Cartilage Explant Assay
# Bone pieces are rinsed twice with Dulbecco's Phosphate Buffered Saline (GibcoBRL) and once with Dulbecco's Modified Eagles Medium (GibcoBRL) and placed into a petri dish with phenol red free Minimum Essential Medium (MEM) (GibcoBRL). Cartilage was cut into small explants of approximately 15-45 mg in weight and one or two explants per well are placed into either 96 or 48 well culture plates with 200-500 μL of culture media per well. The culture media was either a custom modification of Minimum Essential Medium(Eagle) with Earle's salts (GibcoBRL) prepared without L-Arginine, without L-Glutamine and without phenol red or a custom modification of serumless Neuman and Tytell (GibcoBRL) medium prepared without L-arginine, without insulin, without ascorbic acid, without L-glutamine and without phenol red. Both are supplemented before use with 100 μM L-Arginine (Sigma), 2 mM L-glutamine, 1X HL-1 supplement (BioWihittaker), […] ascorbic acid (Sigma) and 150 pg/ml recombinant human IL-1β (RD Systems) to induce nitric oxide synthase. Compounds are then added in 10 μL aliquots and the explants incubated at 37° C. with 5% CO2 for 18-24 hours. The day old supernatant is then discarded and replaced with fresh culture media containing recombinant human IL-1? and compound and incubated for another 20-24 hours. […] All samples are done in quadruplicate. Unstimulated controls are cultured in media in the absence of recombinant human IL-1β. IC50 values (Table I) are determined from plotting the percent inhibition of nitrite production at six different concentrations of inhibitor.
# [2] = tested on: azoxymethane-induced colonic aberrant crypt foci; conditions: cited from earlier work; for formation of colonic aberrant crypt foci: male F344 rats
# [3] = Body weights and toxicity on experimental diets; assay type: in vivo, male F344 rats
# Source text: as §1
# [4] = Rattus norvegicus, po, read-out: ED50
smiles,measurement,setting,value
"Cc1ccc(-c2cc(C(F)(F)F)nn2-c2ccc(S(N)(=O)=O)cc2)cc1 [Celecoxib, celecoxib]",Foci containing 1 Crypt,AOM-induced colonic ACF; 500 ppm in diet,26.8 ± 2.1
same,Foci containing 2 Crypt,AOM-induced colonic ACF; 500 ppm in diet,27.3 ± 2.0
same,Foci containing 3 Crypt,AOM-induced colonic ACF; 500 ppm in diet,23.7 ± 2.3
same,Foci containing ≧4 Crypts,AOM-induced colonic ACF; 500 ppm in diet,23.3 ± 2.7
same,Total ACF incidence,AOM-induced colonic ACF; 500 ppm in diet,102 ± 7.5
same,inhibition at 500 ppm,"AOM-induced colonic ACF; Rattus norvegicus, 500 ppm, read-out: inhibition of total ACF",5 to 20%
same,"NOS Activity, NOS",NOS,11.3 ± 2.1 pmoles [^3H]-citrulline/mg pro
"CC(=N)NC/C(F)=C\CC[C@H](N)C(=O)O [Example A, (2S,5E)-2-amino-6-fluoro-7-[(1-iminoethyl)amino]-5-heptenoic acid, dihydrochloride]",ED50,[1]; dihydrochloride,<0.1 mg/kg
"CC(=N)NC/C(F)=C\CC[C@](C)(N)C(=O)O.Cl.Cl [Example HH, (2S,5E)-2-amino-2-methyl-6-fluoro-7-[(1-iminoethyl)amino]-5-heptenoic acid, dihydrochloride]",IC50,Human Cartilage; Homo sapiens,0.4 µM
same,ED50,[1]; [4],0.4 mg/kg
"COC[C@](N)(CSCCNC(C)=N)C(=O)O [Example J, 2-[[[2-[(1-Iminoethyl)amino]ethyl]thio]methyl]-O-methyl-D-serine, dihydrochloride]",IC50,Human Cartilage,8.2 µM
"CC(=N)NC/C=C\CC[C@](C)(N)C(=O)O.Cl.Cl [Example LL, (2S,5Z)-2-amino-2-methyl-7-[(1-iminoethyl)amino]-5-heptenoic acid, dihydrochloride]",IC50,Human Cartilage; Homo sapiens,0.8 µM
same,ED50,[1]; [4],0.3 mg/kg
"Cl.N=C1CCCC[C@H](CCCC[C@@H](N)C(=O)O)N1.O.O.O [Example V, (αR,2S)-α-aminohexahydro-7-imino-1H-azepine-2-hexanoic acid, trihydrate hydrochloride]",IC50,Human Cartilage; Homo sapiens,< 10 µM
same,ED50,[1]; [4],< 3 mg/kg
"Cl.N=C1CCCC[C@@H](CCCC[C@H](N)C(=O)O)N1.O.O.O [Example W, (αS,2R)-α-aminohexahydro-7-imino-1H-azepine-2-hexanoic acid, trihydrate hydrochloride]",IC50,Human Cartilage; Homo sapiens,> 30 µM
same,ED50,[1]; [4],> 10 mg/kg
"N=C1CCCC[C@H](CCCC[C@H](N)C(=O)O)N1 [Example X, (αS,2S)-α-aminohexahydro-7-imino-1H-azepine-2-hexanoic acid, trihydrate hydrochloride]",IC50,Human Cartilage,< 10 µM
"N=C1CCCC[C@H](CCCC[C@H](N)C(=O)O)N1 [Example Z, (αS,2S)-α-aminohexahydro-7-imino-1H-azepine-2-hexanoic acid, trihydrate hydrochloride]",IC50,Human Cartilage; Homo sapiens,< 10 µM
N=C(N)SCCc1ccc(CCSC(=N)N)cc1 [PBIT],azoxymethane-induced colonic aberrant crypt foci development and iNOS activity,[2]; laboratory rodents,prevented
CC1=C(CC(=O)O)c2cc(F)ccc2/C1=C\c1ccc([S+](C)[O-])cc1 (stereo not shown) [Sulindac],Foci containing 1 Crypt,AOM-induced colonic ACF; 320 ppm in diet,23.3 ± 1.8
same,Foci containing 2 Crypt,AOM-induced colonic ACF; 320 ppm in diet,28.0 ± 1.5
same,Foci containing 3 Crypt,AOM-induced colonic ACF; 320 ppm in diet,17.3 ± 1.7
same,Foci containing ≧4 Crypts,AOM-induced colonic ACF; 320 ppm in diet,16.5 ± 0.9
same,Total ACF incidence,AOM-induced colonic ACF; 320 ppm in diet,84.9 ± 4.1
same,inhibition at 320 ppm,"AOM-induced colonic ACF; Rattus norvegicus, 320 ppm in diet, read-out: inhibition of multicrypt clusters containing 4 or more aberrant crypts/focus",50%
same,inhibition at 320 ppm,"AOM-induced colonic ACF; Rattus norvegicus, 320 ppm in diet, read-out: inhibition of total ACF/colon",40%
same,body weights,"[3]; rats treated with vehicle or AOM, control vs experimental diets, throughout the study period",comparable
same,"toxicity or gross changes in the liver, kidney, intestine and lungs",[3]; vehicle-treated rats fed the experimental diets,did not produce any toxicity or any gross changes
COc1ccc2cc(CCC(C)=O)ccc2c1 [nabumetone],formation of colonic aberrant crypt foci,[2],inhibit
CS(=O)(=O)Nc1ccc([N+](=O)[O-])cc1Oc1ccccc1 [nemisulide],formation of colonic aberrant crypt foci,[2],inhibit
